Test results from ChEMBL document CHEMBL1201862, “PubChem BioAssay data set” (2004).
The source made the active and inactive calls.

How the values were obtained:
[1] = IGROV1 ovarian cancer cell cytotoxicity, dose response, PAX8 inhibitor project, plate reader, dry powder samples (AID 743043); type: functional, cell-based; details: IGROV-1
Paired box protein Pax-8 = Paired box protein Pax-8 (Homo sapiens, UniProt Q06710); assay: inhibitors of PAX8-driven TPO luciferase reporter, dose response, RMG-I cells, cherry-pick (AID 687027); type: functional, cell-based;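 further: luciferase reporter driven by Pax8 target thyroperoxidase promoter measured by SteadyGlo luminescence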
[2] = NIH:OVCAR-3 ovarian cancer cell cytotoxicity, dose response, PAX8 inhibitor project, plate reader, dry powder samples (AID 743044); type: functional, cell-based
[3] = cytotoxicity in OVCAR8 ovarian cancer cells, dose response, PAX8 project, cell-based, plate reader, dry powder samples (AID 743197); type: functional; details: OVCAR-8
Cytochrome P450 2D6 = Cytochrome P450 2D6 (Homo sapiens, UniProt P10635);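 further: CYP2D6 member of a cytochrome P450 panel assay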
Cytochrome P450 2C9 = Cytochrome P450 2C9 (Homo sapiens, UniProt P11712)
Genome polyprotein = Genome polyprotein (dengue virus type 2, UniProt P29990); assay: Dengue-2 NS5 methyltransferase inhibitors, primary screen, biochemical, confirmation dose response (AID 588689); type: functional
[4] = biological target: Eukaryotic translation initiation factor 4E (Mus musculus, UniProt P63073); assay: eIF4E–eIF4G protein interaction inhibitors, dose response, biochemical, TR-FRET (AID 855); type: functional;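 further: potency for disrupting eIF4E binding to eIF4GI seen as loss of FRET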
[5] = biological target: T1, Short transient receptor potential channel 4 (Mus musculus, UniProt Q9QUQ5); assay: mouse TRPC4 channel inhibitors, dose response, cell-based, HEK293 TRPC4/mu-opioid, Fluo-4 calcium (AID 434942); type: functional;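 further: potency of inhibitors blocking the TRPC4 calcium response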
T1 sequence (Q9QUQ5 whole entry): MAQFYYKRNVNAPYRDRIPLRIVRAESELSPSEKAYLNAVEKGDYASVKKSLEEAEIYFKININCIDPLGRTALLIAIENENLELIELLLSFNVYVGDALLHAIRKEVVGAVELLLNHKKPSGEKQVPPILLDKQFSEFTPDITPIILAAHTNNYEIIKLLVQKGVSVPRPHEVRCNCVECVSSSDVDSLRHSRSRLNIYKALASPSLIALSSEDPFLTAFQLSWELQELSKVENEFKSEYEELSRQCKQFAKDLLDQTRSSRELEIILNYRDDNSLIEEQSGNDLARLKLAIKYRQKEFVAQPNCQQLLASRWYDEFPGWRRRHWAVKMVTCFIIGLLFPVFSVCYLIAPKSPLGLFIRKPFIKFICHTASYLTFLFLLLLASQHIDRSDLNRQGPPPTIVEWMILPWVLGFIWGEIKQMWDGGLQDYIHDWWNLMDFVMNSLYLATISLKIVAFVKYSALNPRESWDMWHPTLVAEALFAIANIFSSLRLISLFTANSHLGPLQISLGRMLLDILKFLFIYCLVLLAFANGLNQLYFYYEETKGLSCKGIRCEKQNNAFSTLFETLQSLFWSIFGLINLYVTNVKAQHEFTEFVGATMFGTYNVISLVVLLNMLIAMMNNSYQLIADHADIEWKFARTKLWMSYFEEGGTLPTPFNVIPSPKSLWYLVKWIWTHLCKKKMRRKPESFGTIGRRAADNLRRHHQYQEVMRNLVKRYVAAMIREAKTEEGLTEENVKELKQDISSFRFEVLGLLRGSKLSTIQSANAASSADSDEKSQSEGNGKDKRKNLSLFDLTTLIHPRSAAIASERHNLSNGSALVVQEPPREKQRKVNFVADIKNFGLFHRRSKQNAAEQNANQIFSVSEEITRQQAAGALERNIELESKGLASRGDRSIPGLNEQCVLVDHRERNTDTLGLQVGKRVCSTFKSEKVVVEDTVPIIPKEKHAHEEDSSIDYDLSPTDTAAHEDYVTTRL

[6] = P. falciparum Dd2 growth inhibitors, dose response, SYBR Green, dry powder samples (AID 1159566); type: functional, cell-based;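 further: potency for growth inhibition with lower SYBR green DNA signal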
[7] = P. falciparum ATP4 D1247Y mutant growth inhibitors, dose response, NITD609-resistant line, SYBR Green, dry powder (AID 1159571); type: functional, cell-based;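 further: parasites synchronized at ring stage by sorbitol before testing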
[8] = P. falciparum Dd2 growth inhibitors, dose response, SYBR Green, cherry-picked samples (AID 1159567); type: functional, cell-based
[9] = P. falciparum 3D7-ScDHODH growth inhibitors, dose response, SYBR Green, dry powder samples (AID 1159570); type: functional, cell-based;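 further: parasite growth measured after 72 hours of compound exposure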
cells [10] = type: functional
[11] = THP-1 cell cytotoxicity, dose response, cytotoxicity control for non-replicating M. tuberculosis project (AID 489025); type: functional
[12] = biological target: Mitogen-activated protein kinase 10 (Homo sapiens, UniProt P53779); assay: Dose response biochemical screening assay for inhibitors of c-Jun N-Terminal Kinase 3 (JNK3). [Related pubchem assays: 746 ]
Vero [13] = assay: cells; type: functional, cell-based; details: Chlorocebus sabaeus
Vero [14] = assay: cells; type: functional; details: Chlorocebus sabaeus
[15] = inhibitors of SNCA 5'UTR-driven reporter translation, confirmation, H4 neuroglioma cells, luminescence (AID 1988); type: functional, cell-based
cells [16] = type: functional, cell-based
Nonstructural protein 1 = Nonstructural protein 1 (Influenza A virus, UniProt Q194T2); type: functional, Influenza A virus (A/California/07/2009(H1N1))
[17] = Luminescence Cell-Based Dose Response HTS to Identify Inhibitors of 5'UTR Stem-Loop Driven Prion Protein mRNA Translation in H4 Neuroglioblastoma Cells. [Related pubchem assays: 1827 (Project Summary), 1813 (Primary HTS)]; type: functional
cells [18] = type: functional, cell-based; remark: listed apart in the source
[19] = inhibitors of firefly luciferase expression or activity, dose response, H4 neuroglioma cells, luminescence (AID 1990); type: functional, cell-based
[20] = biological target: T2, Voltage-gated N-type calcium channel alpha-1B subunit/Amyloid beta A4 precursor protein-binding family A member 1 (Homo sapiens, UniProt Q00975+Q02410); type: protein assay
[21] = biological target: T2, Voltage-gated N-type calcium channel alpha-1B subunit/Amyloid beta A4 precursor protein-binding family A member 1; type: protein assay; remark: listed apart in the source
[22] = inhibitors of intracellular T. cruzi replication, confirmation, NIH3T3 host cells, beta-gal luminescence (AID 2044); type: functional, cell-based;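 further: intracellular parasites grown in NIH/3T3 mouse fibroblasts as host cells; luminescent beta-galactosidase reporter signal from transgenic T. cruzi replicating inside host cells; inhibitors lower the luminescence signal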
[23] = cytotoxicity toward NIH3T3 fibroblasts, dose response, counter-screen, cell-based, ATP luminescence, mouse fibroblasts (AID 2010); type: functional;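 further: cells exposed to compound for about 90 hours before reading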
[24] = biological target: T3, Histone-lysine N-methyltransferase NSD2 (Homo sapiens, UniProt O96028); type: biochemical
T3 sequence (O96028 whole entry): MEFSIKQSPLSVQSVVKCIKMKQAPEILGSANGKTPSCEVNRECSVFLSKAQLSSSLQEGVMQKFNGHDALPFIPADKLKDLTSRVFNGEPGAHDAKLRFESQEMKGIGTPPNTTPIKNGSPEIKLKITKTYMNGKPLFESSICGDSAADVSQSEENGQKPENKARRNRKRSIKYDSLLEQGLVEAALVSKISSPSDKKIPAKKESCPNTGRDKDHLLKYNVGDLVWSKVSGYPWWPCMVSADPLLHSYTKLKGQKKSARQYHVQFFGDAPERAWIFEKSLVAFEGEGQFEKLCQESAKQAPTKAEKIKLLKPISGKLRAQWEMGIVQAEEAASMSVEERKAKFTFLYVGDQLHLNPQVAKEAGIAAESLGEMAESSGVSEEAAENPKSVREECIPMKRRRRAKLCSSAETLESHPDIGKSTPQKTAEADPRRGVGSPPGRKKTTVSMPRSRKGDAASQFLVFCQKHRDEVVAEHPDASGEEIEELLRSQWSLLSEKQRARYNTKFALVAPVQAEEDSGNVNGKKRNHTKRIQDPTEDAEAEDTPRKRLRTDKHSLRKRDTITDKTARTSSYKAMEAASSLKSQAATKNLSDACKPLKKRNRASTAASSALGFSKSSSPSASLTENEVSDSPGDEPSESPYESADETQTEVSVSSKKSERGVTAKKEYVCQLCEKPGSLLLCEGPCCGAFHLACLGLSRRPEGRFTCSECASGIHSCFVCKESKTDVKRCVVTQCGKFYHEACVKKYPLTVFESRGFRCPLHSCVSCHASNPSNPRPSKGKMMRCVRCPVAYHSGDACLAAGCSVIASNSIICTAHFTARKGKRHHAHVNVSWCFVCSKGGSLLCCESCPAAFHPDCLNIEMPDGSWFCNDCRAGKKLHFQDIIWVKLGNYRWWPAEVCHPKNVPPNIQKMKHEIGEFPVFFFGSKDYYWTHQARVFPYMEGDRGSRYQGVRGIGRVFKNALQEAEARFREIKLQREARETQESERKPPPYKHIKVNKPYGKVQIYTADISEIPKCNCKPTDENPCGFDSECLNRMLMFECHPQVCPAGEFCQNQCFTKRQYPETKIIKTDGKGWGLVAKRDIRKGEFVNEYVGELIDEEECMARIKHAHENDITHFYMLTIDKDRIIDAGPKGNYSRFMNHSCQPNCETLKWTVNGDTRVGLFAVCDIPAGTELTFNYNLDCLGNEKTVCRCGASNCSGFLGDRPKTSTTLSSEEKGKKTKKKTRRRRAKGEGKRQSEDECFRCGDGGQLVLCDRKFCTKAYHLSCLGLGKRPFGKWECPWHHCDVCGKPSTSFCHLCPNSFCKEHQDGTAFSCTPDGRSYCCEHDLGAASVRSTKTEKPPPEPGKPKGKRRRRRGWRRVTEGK

Chain of Paired box protein Pax-8 (Q06710 whole entry): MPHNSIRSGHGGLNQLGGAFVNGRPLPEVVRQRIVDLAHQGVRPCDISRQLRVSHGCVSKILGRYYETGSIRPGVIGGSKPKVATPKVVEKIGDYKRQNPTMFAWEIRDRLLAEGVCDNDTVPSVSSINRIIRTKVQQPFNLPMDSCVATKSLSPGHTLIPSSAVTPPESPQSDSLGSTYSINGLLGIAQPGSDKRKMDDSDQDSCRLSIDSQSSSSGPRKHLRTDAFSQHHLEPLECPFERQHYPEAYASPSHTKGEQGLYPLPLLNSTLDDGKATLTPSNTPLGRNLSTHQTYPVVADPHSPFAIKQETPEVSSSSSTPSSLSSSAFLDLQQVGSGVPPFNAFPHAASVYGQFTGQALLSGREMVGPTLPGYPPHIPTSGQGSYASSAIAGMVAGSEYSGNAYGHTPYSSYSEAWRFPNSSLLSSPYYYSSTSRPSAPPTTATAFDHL
Chain of Cytochrome P450 2D6 (P10635 whole entry): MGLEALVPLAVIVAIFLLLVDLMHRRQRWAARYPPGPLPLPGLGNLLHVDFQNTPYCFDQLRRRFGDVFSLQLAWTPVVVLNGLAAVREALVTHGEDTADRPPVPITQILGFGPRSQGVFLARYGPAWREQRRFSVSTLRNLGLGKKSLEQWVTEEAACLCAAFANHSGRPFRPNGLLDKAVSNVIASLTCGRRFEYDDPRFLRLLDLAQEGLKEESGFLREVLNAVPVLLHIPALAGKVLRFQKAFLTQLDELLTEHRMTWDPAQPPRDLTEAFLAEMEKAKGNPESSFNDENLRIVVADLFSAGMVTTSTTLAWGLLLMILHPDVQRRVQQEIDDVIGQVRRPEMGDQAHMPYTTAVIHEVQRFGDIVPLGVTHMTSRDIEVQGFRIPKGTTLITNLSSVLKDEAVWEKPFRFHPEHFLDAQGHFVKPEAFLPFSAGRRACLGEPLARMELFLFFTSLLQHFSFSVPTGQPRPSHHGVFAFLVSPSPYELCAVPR
T2 sequence (Q00975 whole entry): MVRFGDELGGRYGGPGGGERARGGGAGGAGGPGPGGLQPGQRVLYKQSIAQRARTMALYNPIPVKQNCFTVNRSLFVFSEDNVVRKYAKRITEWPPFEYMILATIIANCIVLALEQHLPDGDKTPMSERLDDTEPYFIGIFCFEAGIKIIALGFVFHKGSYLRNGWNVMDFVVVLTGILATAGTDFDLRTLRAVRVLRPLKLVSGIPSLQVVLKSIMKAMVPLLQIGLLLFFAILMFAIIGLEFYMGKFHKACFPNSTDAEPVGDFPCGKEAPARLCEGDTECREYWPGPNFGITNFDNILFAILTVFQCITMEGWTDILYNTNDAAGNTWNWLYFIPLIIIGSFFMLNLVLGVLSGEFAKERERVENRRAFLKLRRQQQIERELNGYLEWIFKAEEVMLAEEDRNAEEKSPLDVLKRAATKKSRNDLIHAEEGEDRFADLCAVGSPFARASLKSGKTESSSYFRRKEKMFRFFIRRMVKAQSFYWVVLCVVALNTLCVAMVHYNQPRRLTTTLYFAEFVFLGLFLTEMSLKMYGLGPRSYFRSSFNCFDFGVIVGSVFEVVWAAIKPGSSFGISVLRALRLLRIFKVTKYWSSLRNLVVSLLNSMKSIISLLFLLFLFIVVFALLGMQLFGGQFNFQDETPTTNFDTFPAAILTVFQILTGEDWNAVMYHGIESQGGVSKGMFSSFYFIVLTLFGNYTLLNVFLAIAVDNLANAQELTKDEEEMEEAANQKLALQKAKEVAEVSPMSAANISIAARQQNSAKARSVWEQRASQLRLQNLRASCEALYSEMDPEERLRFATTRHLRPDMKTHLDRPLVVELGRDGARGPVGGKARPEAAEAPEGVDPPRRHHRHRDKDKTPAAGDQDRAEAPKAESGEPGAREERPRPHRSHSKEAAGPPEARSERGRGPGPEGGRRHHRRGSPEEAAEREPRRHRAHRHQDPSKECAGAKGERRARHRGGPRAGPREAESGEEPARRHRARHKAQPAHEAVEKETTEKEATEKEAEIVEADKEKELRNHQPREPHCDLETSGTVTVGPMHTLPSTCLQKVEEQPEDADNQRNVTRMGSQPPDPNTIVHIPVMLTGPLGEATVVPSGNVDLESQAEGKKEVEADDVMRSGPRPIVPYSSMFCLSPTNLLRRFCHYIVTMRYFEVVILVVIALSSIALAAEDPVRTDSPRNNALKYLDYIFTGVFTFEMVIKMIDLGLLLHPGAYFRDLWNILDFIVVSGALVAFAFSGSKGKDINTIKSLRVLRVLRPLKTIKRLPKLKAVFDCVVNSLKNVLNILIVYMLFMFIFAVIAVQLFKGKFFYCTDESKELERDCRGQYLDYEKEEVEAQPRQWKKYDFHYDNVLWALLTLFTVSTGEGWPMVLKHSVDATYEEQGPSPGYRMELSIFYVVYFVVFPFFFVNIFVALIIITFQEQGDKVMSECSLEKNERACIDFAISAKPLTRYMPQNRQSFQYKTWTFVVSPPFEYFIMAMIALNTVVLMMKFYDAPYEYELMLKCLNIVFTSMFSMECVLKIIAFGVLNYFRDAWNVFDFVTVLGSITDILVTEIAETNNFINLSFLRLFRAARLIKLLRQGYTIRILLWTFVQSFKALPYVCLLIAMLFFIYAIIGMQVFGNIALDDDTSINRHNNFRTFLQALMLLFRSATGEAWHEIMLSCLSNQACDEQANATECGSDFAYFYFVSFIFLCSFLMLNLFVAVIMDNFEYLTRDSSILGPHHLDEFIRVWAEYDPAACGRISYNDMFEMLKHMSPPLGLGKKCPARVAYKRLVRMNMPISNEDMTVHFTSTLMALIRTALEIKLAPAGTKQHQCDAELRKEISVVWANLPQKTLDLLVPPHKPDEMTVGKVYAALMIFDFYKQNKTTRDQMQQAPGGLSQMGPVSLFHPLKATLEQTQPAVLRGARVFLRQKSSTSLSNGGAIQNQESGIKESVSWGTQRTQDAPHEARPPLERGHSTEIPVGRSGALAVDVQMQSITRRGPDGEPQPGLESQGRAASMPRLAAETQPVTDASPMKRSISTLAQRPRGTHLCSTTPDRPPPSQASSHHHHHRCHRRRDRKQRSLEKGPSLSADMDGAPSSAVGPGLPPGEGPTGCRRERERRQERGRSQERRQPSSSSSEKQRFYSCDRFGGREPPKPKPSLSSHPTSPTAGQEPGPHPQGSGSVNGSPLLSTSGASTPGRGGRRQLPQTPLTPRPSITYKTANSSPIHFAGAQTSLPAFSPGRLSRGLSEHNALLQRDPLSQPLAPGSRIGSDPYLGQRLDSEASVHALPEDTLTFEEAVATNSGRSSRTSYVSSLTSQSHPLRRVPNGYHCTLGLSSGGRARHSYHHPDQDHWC
T2 sequence (Q02410 whole entry): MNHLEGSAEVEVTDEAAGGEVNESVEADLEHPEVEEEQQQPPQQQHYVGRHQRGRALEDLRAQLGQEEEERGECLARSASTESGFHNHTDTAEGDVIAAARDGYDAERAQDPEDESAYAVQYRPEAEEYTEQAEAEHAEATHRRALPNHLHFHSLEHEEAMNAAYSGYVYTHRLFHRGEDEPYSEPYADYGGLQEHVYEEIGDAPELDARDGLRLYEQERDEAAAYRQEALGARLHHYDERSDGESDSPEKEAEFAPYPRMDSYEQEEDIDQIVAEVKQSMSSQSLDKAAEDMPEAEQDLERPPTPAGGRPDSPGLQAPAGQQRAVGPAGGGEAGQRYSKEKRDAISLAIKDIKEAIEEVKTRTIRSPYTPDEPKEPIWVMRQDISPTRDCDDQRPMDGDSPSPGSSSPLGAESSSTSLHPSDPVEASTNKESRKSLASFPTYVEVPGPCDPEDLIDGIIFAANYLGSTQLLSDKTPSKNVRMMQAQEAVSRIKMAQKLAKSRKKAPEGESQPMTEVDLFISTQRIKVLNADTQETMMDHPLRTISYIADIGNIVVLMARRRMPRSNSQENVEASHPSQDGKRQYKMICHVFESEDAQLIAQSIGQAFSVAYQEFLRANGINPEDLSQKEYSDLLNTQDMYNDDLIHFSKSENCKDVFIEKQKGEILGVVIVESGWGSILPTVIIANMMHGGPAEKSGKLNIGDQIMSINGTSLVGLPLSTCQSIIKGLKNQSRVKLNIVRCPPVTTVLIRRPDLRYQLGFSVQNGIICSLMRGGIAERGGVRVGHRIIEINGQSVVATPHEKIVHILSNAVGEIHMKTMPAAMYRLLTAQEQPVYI
Chain of Mitogen-activated protein kinase 10 (P53779 whole entry): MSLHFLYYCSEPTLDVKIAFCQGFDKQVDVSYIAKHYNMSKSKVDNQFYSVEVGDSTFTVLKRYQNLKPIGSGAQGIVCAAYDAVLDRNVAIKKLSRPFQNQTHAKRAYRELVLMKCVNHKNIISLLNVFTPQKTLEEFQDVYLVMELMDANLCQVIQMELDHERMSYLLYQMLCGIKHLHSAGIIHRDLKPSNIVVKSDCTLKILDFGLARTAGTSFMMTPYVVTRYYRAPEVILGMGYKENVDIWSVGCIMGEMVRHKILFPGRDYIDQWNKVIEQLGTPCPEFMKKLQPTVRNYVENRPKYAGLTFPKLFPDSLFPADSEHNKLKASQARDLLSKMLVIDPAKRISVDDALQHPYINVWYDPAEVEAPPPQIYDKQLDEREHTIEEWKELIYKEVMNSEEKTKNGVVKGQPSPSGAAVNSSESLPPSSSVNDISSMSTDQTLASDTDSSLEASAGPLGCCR
Chain of Eukaryotic translation initiation factor 4E (P63073 whole entry): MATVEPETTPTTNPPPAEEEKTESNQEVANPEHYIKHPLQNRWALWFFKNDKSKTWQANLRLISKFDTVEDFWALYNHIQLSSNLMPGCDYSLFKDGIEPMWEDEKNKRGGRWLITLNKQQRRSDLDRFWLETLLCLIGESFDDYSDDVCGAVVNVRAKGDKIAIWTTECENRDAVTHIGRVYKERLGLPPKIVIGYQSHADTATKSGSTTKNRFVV
Chain of Nonstructural protein 1 (Q194T2 whole entry): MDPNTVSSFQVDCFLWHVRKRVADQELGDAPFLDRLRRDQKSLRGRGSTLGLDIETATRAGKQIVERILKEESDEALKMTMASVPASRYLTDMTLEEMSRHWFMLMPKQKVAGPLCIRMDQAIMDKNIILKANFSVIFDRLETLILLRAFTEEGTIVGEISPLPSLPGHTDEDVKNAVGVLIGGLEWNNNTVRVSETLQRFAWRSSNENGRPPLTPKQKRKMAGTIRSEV

For Cc1ccc(S(=O)(=O)Nc2ccc3c(c2)C(=O)N([C@@H](C)CO)C[C@H](C)[C@@H](CN(C)Cc2ccc(C(F)(F)F)cc2)OCCCC[C@H](C)O3)cc1, the AC50 [1] was 29.5 µM (active), the AC50 (Paired box protein Pax-8) was 7.48 µM (active) and the AC50 [2] was 24.1 µM (active). The AC50 [3] was 46.9 µM (active).

In the case of Clc1ccc(-n2nnnc2CN2CCOCC2)cc1, the AC50 (Cytochrome P450 2D6) is reported as “inconclusive” and the AC50 (Cytochrome P450 2C9) is reported as “inconclusive”.

For CC(C)CN(CC(C)C)c1ccc(C=C2C(=O)NC(=S)NC2=O)cc1[N+](=O)[O-], the IC50 (Genome polyprotein) was 15.9 µM (active), the IC50 [4] was 42.1 µM (inactive) and the EC50 [5] was 1.88 µM (active).

With C[C@H]1CCCCO[C@H](CN(C)C(=O)Nc2ccc(C(F)(F)F)cc2)[C@@H](C)CN([C@@H](C)CO)C(=O)c2cc(NS(=O)(=O)c3ccccc3)ccc2O1 the AC50 [1] was 40.6 µM (active), the AC50 (Paired box protein Pax-8) was 6.7 µM (active) and the AC50 [3] was 45.8 µM (active).

With O=C(Nc1ccccc1F)N1CCCCN2[C@@H](CO)[C@H](c3ccc(C#Cc4cccnc4)cc3)[C@@H]2C1 the AC50 [6] was 0.949 µM (active), the AC50 [7] was 0.824 µM (active) and the AC50 [8] was 1.1 µM (active). The AC50 [9] was 0.652 µM (active).

In the case of CCN(CC)CCCNC(=O)CC1Sc2ccccc2NC1=O (stereo unspecified), the IC50 [4] is reported as > 64 µM (inactive).

For CCC(=O)Nc1ccc(C(=O)NNC(=O)c2cc([N+](=O)[O-])cc([N+](=O)[O-])c2)cc1, the IC50 (cells [10]) was 10.3 µM (active) and the CC50 [11] was > 40 µM (active).

For CCOC(=O)CCCc1sc(N)nc1-c1[nH]c(O)nc1C, the IC50 [12] was > 93.1 µM (not active).

With Cc1cc(O)ccc1-c1cnc2ccccc2n1 the IC50 [12] was 28.1 µM (not active).

For Cc1cccn2cc(COc3ccc(-c4ccccc4)cc3)nc12, the IC50 (Vero [13]) was 11.6 µM (active) and the CC50 (Vero [14]) was > 25 µM (active).

In the case of O=[N+]([O-])c1cccc(/C=N/Nc2nc(NCc3ccccc3)nc(N3CCOCC3)n2)c1O, the EC50 [15] is reported as 15 µM (active), the EC50 (cells [16]) is reported as 13.4 µM (active) and the IC50 (Vero [13]) is reported as 12.2 µM (active). The IC50 (Nonstructural protein 1) was 6.2 µM (active), the EC50 [17] was 14.1 µM (active) and the CC50 (Vero [14]) was 14.7 µM (active). The EC50 (cells [18]) was > 350 µM (not active) and the EC50 [19] was 11.4 µM (active).

For CCOc1cc(CNCCCN2CCOCC2)ccc1OCC(=O)Nc1cccc2ccccc12, the IC50 (Vero [13]) was 18.6 µM (active) and the CC50 (Vero [14]) was > 25 µM (active).

In the case of COc1cc(NC(=O)c2ccccc2)ccc1NC(=O)c1cc2ccccc2o1, the IC50 [20] is reported as > 50 µM (inactive) and the IC50 [21] is reported as > 56.8 µM (not active).

In the case of C[C@@H]1CN([C@H](C)CO)C(=O)c2cc(NS(=O)(=O)c3ccc(Cl)cc3)ccc2O[C@@H](C)CCCCO[C@@H]1CN(C)CC1CCCCC1, the AC50 [1] is reported as 44.4 µM (active), the AC50 (Paired box protein Pax-8) is reported as 9.23 µM (active) and the AC50 [2] is reported as 9.37 µM (active). For the same compound, the AC50 [3] was 18.8 µM (active).

In the case of COc1ccc(N2C(=O)NC(=O)/C(=C\c3ccc([N+](=O)[O-])s3)C2=O)cc1, the IC50 (Genome polyprotein) is reported as 39.1 µM (active), the EC50 [22] is reported as 3.77 µM (active) and the IC50 [20] is reported as 10.3 µM (active). For the same compound, the EC50 [23] was > 60 µM (inconclusive), the AC50 [24] was > 20 µM (inactive) and the IC50 [21] was 18.2 µM (active).

In the case of O=C(CCn1cnc2ccccc2c1=O)Nc1ccc(S(=O)(=O)N2CCCCC2)cc1, the IC50 [12] is reported as 38.4 µM (not active).

In the case of CCOC(=O)c1cnc(-c2ccccc2)nc1Oc1ccc(Cl)cc1, the AC50 (Cytochrome P450 2D6) is reported as “inconclusive”.

For CCN1CCCC1CNC(=O)C(=O)Nc1ccccc1OC (stereo unspecified), the AC50 (Cytochrome P450 2D6) was “inconclusive” and the AC50 (Cytochrome P450 2C9) was “inconclusive”.

For O=C(O)[C@H]1C[C@H](C(=O)O)N1, the AC50 (Cytochrome P450 2D6) was “inconclusive”.

For COc1ccc(CC(=O)Nc2cc(C)ccn2)cc1, the IC50 [12] was 21.4 µM (not active).
